In test [1] the test system is U-251. Briefly: Induction of DNA damage in PTEN-deficient human U251 cells assessed as accumulation of gammaH2AX positive cells at G2/M phase at 6.25 to 12.5 ug/ml measured after 4 to 24 hrs by PI staining based flow cytometric analysis. It is filed as functional, cell-based. For orientation: Flow cytometry measures light scatter and fluorescence of single cells or particles in a stream.

Test [2] relates to U-251. As to the kind of experiment: Induction of cell cycle arrest in PTEN-proficient human U251 cells assessed as accumulation at G2/M phase at 6.25 to 12.5 ug/ml incubated for 4 hrs followed by irradiation with 5 Gy IR by PI staining based flow cytometric analysis. The test is classed as functional.
In test [3] the test system is U-251. Briefly: Induction of DNA damage in PTEN-deficient human U251 cells assessed as accumulation of gammaH2AX positive cells at S phase at 6.25 to 12.5 ug/ml measured after 4 to 24 hrs by PI staining based flow cytometric analysis. It is filed as functional, cell-based.
Test [4] in a line: Inhibition of DSB repair in PTEN-deficient human U2OS EJ-DR cells assessed as reduction in homologous recombination activity at 12.5 ug/ml incubated for 24 hrs in presence of DSB inducer by flow cytometric analysis relative to control. The test is classed as functional.
Test [5] concerns U-251. Briefly: Induction of DNA damage in PTEN-deficient human U251 cells assessed as gammaH2AX accumulation at 6.25 to 12.5 ug/ml after 4 to 24 hrs by PI staining based flow cytometric analysis. It is filed as functional, cell-based.
Test [6] relates to U-251. As to the kind of experiment: Induction of cell cycle arrest in PTEN-deficient human U251 cells assessed as accumulation at G1 phase at 6.25 to 12.5 ug/ml after 4 to 24 hrs by PI staining based flow cytometric analysis. It is filed as functional.
The test system of test [7] is U-251. Briefly: Induction of DNA damage in PTEN-proficient human U251 cells assessed as accumulation of gammaH2AX positive cells at G1 phase at 6.25 to 12.5 ug/ml measured after 4 to 24 hrs by PI staining based flow cytometric analysis. It is filed as functional, cell-based.
Test [8] relates to U-251. As to the kind of experiment: Induction of DNA damage in PTEN-proficient human U251 cells assessed as accumulation of gammaH2AX positive cells at S phase at 6.25 to 12.5 ug/ml measured after 4 to 24 hrs by PI staining based flow cytometric analysis. The test is classed as functional, cell-based.
Test [9] has as its system U-251. As to the kind of experiment: Inhibition of DSB repair in PTEN-deficient human U251 cells at 12.5 ug/ml by neutral comet assay. The test is classed as functional, cell-based.
Test [10] concerns U-251. Briefly: Induction of cell cycle arrest in PTEN-deficient human U251 cells assessed as accumulation at G2/M phase at 6.25 to 12.5 ug/ml incubated for 4 hrs followed by irradiation with 5 Gy IR by PI staining based flow cytometric analysis. The test is classed as functional.
Test [11] relates to U-251. Briefly: Induction of DNA damage in PTEN-proficient human U251 cells assessed as accumulation of gammaH2AX positive cells at G2/M phase at 6.25 to 12.5 ug/ml measured after 4 to 24 hrs by PI staining based flow cytometric analysis. It is filed as functional, cell-based.
A short description of test [12]: Inhibition of DSB repair in PTEN-deficient human U2OS EJ-DR cells assessed as reduction in mutagenic non-homologous end joining activity at 12.5 ug/ml incubated for 24 hrs in presence of DSB inducer by flow cytometric analysis relative to control. It is filed as functional.
Test [13] concerns U-251. Briefly: Inhibition of DSB repair in PTEN-deficient 5 Gy IR-induced human U251 cells assessed as increase in comet tail moment at 12.5 ug/ml pretreated followed by irradiation with 5 Gy IR by neutral comet assay. The test is classed as functional, cell-based.
The subject of test [14] is U-251. As to the kind of experiment: Induction of DNA damage in PTEN-deficient human U251 cells assessed as gammaH2AX foci formation at 12.5 ug/ml in presence of 5 Gy IR irradiation measured after 4 to 24 hrs by PI staining based flow cytometric analysis. The test is classed as functional, cell-based.
Test [15] relates to U-251. As to the kind of experiment: Induction of DNA damage in PTEN-deficient human U251 cells assessed as accumulation of gammaH2AX positive cells at G1 phase at 6.25 to 12.5 ug/ml measured after 4 to 24 hrs by PI staining based flow cytometric analysis. The test is classed as functional, cell-based.
Test [16] relates to U-251. As to the kind of experiment: Induction of DNA damage in PTEN-deficient human U251 cells assessed as accumulation of gammaH2AX positive cells at G1 phase at 12.5 ug/ml in presence of 5 Gy IR irradiation measured after 4 to 24 hrs by PI staining based flow cytometric analysis. It is filed as functional, cell-based.
The subject of test [17] is U-251. As to the kind of experiment: Selective cytotoxicity against PTEN-deficient human U251 cells at 12.5 ug/ml after 48 hrs by CellTiter-Glo luminescent cell viability assay. It is filed as functional, cell-based. (In general: Cellular ATP, detected with luciferase, serves as a proxy for viable cell number.)
Test [18] concerns U-251. Briefly: Radiosensitizer activity in PTEN-deficient human U251 cells assessed as reduction in cell survival at 6.25 to 12.5 ug/ml in presence of 5 Gy IR irradiation by CellTiter-Glo cell viability assay. The test is classed as functional, cell-based.

Active and inactive are the calls of the source. The calls are words filed in the database; no cut-off is given here.

The record followed here is ChEMBL document CHEMBL4619759, “A DNA Repair Inhibitor Isolated from an Ecuadorian Fungal Endophyte Exhibits Synthetic Lethality in PTEN-Deficient Glioblastoma” (2020).

One may read the inhibition as the change of the read-out against control, counted positive when it falls. In the case of `O=C1Nc2ccccc2-c2ccnc3ccc(O)c1c23`, the outcome in [1], in [3], in test [7], in [8], in test [11] and in test [15] was inactive. Also, the result in test [2], in [5], in [6], in test [10], in test [14] and in test [16] was Active. For the same compound, the result in [17] and in test [18] was Active. Also, the inhibition at 12.5 µg/mL in [4] was determined as 46%; in test [12] it was 48%. Also, the inhibition entry in test [9] and in test [13] was “Active” throughout.
